Structures are written as SMILES. Where two headings read alike, the source gives them in different places. Bridge positions count the residues as written; N and C are the ends. Peptide text beside a SMILES is read from it. Where only a bound is given, the exact number is not on record here.

In one experiment the target is integrin αvβ5 (Homo sapiens, UniProt P06756+P18084). As to the kind of experiment: ELISA competition assay, integrin αvβ5. Format: binding. In general terms: An ELISA detects its analyte on a solid surface through an enzyme-linked reagent.
The target in experiment [1] is T1, integrin αvβ6 (Homo sapiens, UniProt P06756+P18564). As to the kind of experiment: ELISA competition assay, integrin αvβ6 binding to LAP. The settings on record: mean.
The target of the next experiment is integrin αvβ1 (Homo sapiens, UniProt P05556+P06756). Put plainly: ELISA competition assay, integrin αvβ1. Format: binding.
The target in a further experiment is integrin α8β1 (Homo sapiens, UniProt P05556+P53708). Put plainly: ELISA competition assay, integrin α8β1. Format: binding.
A further experiment has as its target integrin α5β1 (Homo sapiens, UniProt P05556+P08648). As to the kind of experiment: ELISA competition assay, integrin α5β1. In kind it is binding.
The next experiment addresses integrin αvβ3 (Homo sapiens, UniProt P05106+P06756). Put plainly: ELISA competition assay, integrin αvβ3. In kind it is binding.
Another experiment addresses T2, integrin αIIbβ3 (Homo sapiens, UniProt P05106+P08514).
T2 sequence (P08514 32-993 limits assumed): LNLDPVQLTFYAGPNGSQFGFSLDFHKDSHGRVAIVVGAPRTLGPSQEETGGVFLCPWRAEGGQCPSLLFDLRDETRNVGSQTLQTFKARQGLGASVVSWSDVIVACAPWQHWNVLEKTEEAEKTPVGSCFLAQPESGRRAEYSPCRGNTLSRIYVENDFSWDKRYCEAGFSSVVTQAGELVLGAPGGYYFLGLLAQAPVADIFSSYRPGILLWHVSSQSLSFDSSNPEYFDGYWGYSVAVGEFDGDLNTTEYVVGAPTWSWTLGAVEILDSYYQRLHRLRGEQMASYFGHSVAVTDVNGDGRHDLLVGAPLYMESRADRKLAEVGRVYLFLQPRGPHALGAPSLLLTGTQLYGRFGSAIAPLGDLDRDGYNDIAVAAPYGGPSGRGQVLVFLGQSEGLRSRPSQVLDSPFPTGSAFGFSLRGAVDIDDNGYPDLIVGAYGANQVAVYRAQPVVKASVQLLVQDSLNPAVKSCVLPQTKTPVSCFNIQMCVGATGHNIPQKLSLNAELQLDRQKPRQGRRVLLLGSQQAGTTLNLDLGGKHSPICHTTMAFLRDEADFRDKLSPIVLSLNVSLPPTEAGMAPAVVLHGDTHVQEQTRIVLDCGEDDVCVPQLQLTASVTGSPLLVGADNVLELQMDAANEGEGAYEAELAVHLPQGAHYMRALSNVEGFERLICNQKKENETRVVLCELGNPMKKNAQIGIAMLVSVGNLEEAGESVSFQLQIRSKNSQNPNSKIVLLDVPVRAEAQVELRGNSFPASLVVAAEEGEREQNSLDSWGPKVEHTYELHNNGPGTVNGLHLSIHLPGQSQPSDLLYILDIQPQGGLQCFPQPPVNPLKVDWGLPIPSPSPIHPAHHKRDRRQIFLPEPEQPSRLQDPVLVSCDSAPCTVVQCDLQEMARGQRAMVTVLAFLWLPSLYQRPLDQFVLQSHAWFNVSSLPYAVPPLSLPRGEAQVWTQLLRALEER
T2 sequence (P05106 27-718 limits assumed): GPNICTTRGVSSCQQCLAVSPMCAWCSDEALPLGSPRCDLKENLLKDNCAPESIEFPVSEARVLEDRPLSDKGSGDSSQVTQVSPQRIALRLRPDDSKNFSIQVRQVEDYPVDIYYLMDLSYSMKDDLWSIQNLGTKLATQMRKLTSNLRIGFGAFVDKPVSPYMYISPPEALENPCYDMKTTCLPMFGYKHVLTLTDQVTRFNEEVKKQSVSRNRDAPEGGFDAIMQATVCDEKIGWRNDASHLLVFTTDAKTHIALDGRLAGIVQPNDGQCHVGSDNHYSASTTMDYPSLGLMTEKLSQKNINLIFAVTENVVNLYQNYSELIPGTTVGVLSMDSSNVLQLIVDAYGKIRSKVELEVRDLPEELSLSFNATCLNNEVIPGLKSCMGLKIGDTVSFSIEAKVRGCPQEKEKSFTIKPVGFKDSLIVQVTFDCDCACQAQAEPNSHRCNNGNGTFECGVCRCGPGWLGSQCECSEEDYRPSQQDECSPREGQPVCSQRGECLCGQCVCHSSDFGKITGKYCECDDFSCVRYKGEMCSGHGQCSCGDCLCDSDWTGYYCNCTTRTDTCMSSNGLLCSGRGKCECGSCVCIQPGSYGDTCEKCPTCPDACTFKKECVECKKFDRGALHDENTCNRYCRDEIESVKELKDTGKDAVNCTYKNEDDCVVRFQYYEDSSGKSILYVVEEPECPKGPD
Put plainly: ELISA competition assay, integrin αIIbβ3. In kind it is binding.

The target in experiment [2] is T3, integrin αvβ8 (Homo sapiens, UniProt P06756+P26012). Put plainly: ELISA competition assay, integrin αvβ8 binding to LAP.
Experiment [3] has as its target T1, integrin αvβ6. As to the kind of experiment: AlphaLISA competition assay vs LAP, biotinylated αvβ6. Format: binding.
Experiment [4] deals with T3, integrin αvβ8. As to the kind of experiment: AlphaLISA competition assay vs LAP, biotinylated αvβ8. Format: binding. For orientation: Alpha assays give light when donor and acceptor beads are brought close together.
For a further experiment, the target named is T4, Mouse αvβ6 (Mus musculus, UniProt P43406+Q9Z0T9).
T4 sequence (P43406 31-988 limits assumed): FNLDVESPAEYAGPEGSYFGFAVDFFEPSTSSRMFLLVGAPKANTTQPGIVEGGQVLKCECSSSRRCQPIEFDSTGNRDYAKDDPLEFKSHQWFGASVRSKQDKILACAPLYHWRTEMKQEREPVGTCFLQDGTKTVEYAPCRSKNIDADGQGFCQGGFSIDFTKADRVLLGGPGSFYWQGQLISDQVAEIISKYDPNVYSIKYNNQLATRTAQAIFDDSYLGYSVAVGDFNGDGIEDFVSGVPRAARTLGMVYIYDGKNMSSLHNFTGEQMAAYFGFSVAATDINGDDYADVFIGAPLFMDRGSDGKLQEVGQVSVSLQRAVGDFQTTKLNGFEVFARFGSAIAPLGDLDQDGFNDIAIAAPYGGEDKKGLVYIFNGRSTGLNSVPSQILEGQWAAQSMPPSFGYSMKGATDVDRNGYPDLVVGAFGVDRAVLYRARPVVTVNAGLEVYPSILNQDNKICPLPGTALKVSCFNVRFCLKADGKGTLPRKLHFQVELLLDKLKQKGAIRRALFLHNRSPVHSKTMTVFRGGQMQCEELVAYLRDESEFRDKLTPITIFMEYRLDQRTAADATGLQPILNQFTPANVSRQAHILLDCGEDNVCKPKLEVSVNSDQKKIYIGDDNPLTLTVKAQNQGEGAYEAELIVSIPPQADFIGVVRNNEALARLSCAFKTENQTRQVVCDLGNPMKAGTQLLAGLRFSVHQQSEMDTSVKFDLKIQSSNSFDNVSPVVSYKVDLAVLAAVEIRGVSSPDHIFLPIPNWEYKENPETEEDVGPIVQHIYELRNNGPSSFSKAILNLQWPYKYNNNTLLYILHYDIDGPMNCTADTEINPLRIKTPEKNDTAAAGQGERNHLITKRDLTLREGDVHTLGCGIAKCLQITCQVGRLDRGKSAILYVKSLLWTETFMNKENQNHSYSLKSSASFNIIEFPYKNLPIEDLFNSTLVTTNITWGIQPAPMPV
T4 sequence (Q9Z0T9 22-707 limits assumed): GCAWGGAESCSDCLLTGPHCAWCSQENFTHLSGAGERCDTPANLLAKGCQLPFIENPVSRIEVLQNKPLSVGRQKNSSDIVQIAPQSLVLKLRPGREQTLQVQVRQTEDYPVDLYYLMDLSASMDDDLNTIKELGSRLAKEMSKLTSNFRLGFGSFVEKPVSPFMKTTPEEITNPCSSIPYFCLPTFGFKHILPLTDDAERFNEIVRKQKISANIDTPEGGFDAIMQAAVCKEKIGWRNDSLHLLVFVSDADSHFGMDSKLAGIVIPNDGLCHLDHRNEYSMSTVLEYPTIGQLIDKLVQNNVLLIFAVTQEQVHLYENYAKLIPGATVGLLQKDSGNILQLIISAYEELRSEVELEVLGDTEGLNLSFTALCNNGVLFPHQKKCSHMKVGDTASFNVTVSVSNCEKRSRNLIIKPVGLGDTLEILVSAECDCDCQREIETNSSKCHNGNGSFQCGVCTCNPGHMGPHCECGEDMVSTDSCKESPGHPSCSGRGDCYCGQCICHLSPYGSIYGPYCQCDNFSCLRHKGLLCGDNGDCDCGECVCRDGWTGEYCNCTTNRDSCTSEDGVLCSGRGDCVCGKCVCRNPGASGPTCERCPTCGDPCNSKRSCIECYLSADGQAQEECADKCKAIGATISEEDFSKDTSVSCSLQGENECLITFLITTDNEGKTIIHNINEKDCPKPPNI
As to the kind of experiment: ELISA competition assay, mouse integrin αvβ6. Format: binding.

Setting [5] is: αvβ6 IC50, ELISA competition vs LAP, n ≥ 3.

In general, IC50 refers to the point on the concentration scale where inhibition reaches its midpoint. `CC(C)C[C@H](NC(=O)[C@H](CC(=O)O)NC(=O)CNC(=O)[C@H](CCCNC(=N)N)NC(=O)[C@@H](NC(=O)[C@H](Cc1ccccc1)NC(=O)[C@H](Cc1ccc(O)cc1)NC(=O)[C@@H]1CCC(=O)NCC(=O)NCC(=O)N[C@@H](CCCCN)C(=O)NCC(=O)N[C@@H](Cc2c[nH]cn2)C(=O)N[C@@H](C(C)C)C(=O)N2CCC[C@H]2C(=O)N1)C(C)C)C(=O)N[C@@H](CCC(N)=O)C(=O)N[C@@H](CO)C(=O)N[C@@H](Cc1ccccc1)C(=O)N[C@@H](Cc1ccc(O)cc1)C(=O)NCC(=O)O` [lassotide 37] (GGKGHVPEYFVRGDLQSFYG-OH; lactam N-8; C-terminus assumed): the IC50 on integrin αvβ5 was over 10 µM; on integrin αvβ6 [1] (setting [5]) it was 3.1 nM; on integrin αvβ1 it was 21 nM; at integrin α8β1, over 10000 nM; at integrin α5β1, 944 nM; on integrin αvβ3 it was 186 nM. In addition, the values for the half-inhibitory concentration (IC50) on integrin αIIbβ3 and at integrin αvβ8 [2] were 394 nM and 9 nM, respectively.

Take `CC[C@H](C)[C@H](NC(=O)[C@H](CC(C)C)NC(=O)[C@H](CC(=O)O)NC(=O)CNC(=O)[C@H](CCCNC(=N)N)NC(=O)[C@H](CCC(N)=O)NC(=O)[C@H](Cc1ccccc1)NC(=O)[C@H](Cc1ccc(O)cc1)NC(=O)[C@@H]1CCC(=O)NCC(=O)NCC(=O)N[C@@H](C)C(=O)NCC(=O)N[C@@H](Cc2c[nH]cn2)C(=O)N[C@@H](C(C)C)C(=O)N2CCC[C@H]2C(=O)N1)C(=O)N[C@@H](CO)C(=O)N[C@@H](Cc1ccccc1)C(=O)N[C@@H](Cc1ccc(O)cc1)C(=O)NCC(=O)O` [lassotide 21] (GGAGHVPEYFQRGDLISFYG-OH; lactam N-8; C-terminus assumed): the IC50 at integrin αvβ6 [1] (Human αvß6 IC50, ELISA run in triplicate, Table S1) is 40 nM; on integrin αvβ6 [3], 16 nM; on integrin αvβ8 [4], 39 nM; at Mouse αvβ6, 44 nM.

As for `COc1ccc([C@H](CC(=O)O)N2CCN(CCCc3ccc4c(n3)NCCC4)C2=O)cn1` [MK-0429, reference compound], the IC50 on integrin αvβ5 (read-out: αvβ5 IC50, ELISA competition) was 8e-05 µM; on integrin αvβ6 [1] (read-out: Human αvß6 IC50, ELISA run in triplicate, Table S1) it was 1 nM; on integrin αvβ6 [1] (read-out: αvβ6 IC50, ELISA competition vs LAP, n ≥ 3), 1.3 nM; at integrin αvβ1 (read-out: αvβ1 IC50, ELISA competition), 1 nM; at integrin α8β1 (read-out: α8β1 IC50, ELISA competition), 9 nM; on integrin α5β1 (read-out: α5β1 IC50, ELISA competition) it was 18 nM. Besides, the IC50 at integrin αvβ3 (read-out: αvβ3 IC50, ELISA competition, mean, n ≥ 3) amounted to 0.7 nM; on integrin αvβ8 [2] (read-out: αvβ8 IC50, ELISA competition vs LAP, mean, n ≥ 3), 0.7 nM; at Mouse αvβ6 (read-out: Mouse αvß6 IC50, ELISA run in triplicate, mean, Table S1) it was 2 nM.

Turning to `CC(C)C[C@H](NC(=O)[C@H](CC(=O)O)NC(=O)CNC(=O)[C@H](CCCNC(=N)N)NC(=O)[C@@H](NC(=O)[C@H](Cc1ccccc1)NC(=O)[C@H](Cc1ccc(O)cc1)NC(=O)[C@@H]1CCC(=O)NCC(=O)NCC(=O)N[C@@H](CCCNC(=N)N)C(=O)NCC(=O)N[C@@H](Cc2c[nH]cn2)C(=O)N[C@@H](C(C)C)C(=O)N2CCC[C@H]2C(=O)N1)C(C)C)C(=O)N[C@@H](CCC(N)=O)C(=O)N[C@@H](CO)C(=O)N[C@@H](Cc1ccccc1)C(=O)N[C@@H](Cc1ccc(O)cc1)C(=O)NCC(=O)O` [lassotide 38] (GGRGHVPEYFVRGDLQSFYG-OH; lactam N-8), the IC50 on integrin αvβ5 was over 10 µM; on integrin αvβ6 [1] (setting [5]) it was 3 nM; on integrin αvβ1 it was 13 nM; on integrin α8β1, 1290 nM; at integrin α5β1, 397 nM; at integrin αvβ3 it was 185 nM. The values for the IC50 at integrin αIIbβ3 and on Mouse αvβ6 were 126 nM and 4 nM, respectively.

For the origin of these results see doi:10.1101/2025.01.28.635346v1 (bioRxiv, 2025).
